Data reported in ChEMBL document CHEMBL2074298, “Inhibition of vinblastine efflux mediated by P-glycoprotein by grapefruit juice components in caco-2 cells” (Biol Pharm Bull, 1998).

Legend:
[1] = biological target: T1, ATP-dependent translocase ABCB1 (Homo sapiens, UniProt P08183); test: TP_TRANSPORTER: increase in Vinblastine transepithelial transpot (apical to basal)(Vinblastine: 0.01 uM, Naringenin: 855 uM) in Caco-2 cells; format: functional, cell-based; settings: caco-2, 855 µM
[2] = biological target: T1, ATP-dependent translocase ABCB1; test: TP_TRANSPORTER: increase in Vinblastine transepithelial transpot (apical to basal) (Vinblastine: 0.01 uM, GFJ: 50 %) in Caco-2 cells; format: functional, cell-based

T1 sequence (P08183 whole entry): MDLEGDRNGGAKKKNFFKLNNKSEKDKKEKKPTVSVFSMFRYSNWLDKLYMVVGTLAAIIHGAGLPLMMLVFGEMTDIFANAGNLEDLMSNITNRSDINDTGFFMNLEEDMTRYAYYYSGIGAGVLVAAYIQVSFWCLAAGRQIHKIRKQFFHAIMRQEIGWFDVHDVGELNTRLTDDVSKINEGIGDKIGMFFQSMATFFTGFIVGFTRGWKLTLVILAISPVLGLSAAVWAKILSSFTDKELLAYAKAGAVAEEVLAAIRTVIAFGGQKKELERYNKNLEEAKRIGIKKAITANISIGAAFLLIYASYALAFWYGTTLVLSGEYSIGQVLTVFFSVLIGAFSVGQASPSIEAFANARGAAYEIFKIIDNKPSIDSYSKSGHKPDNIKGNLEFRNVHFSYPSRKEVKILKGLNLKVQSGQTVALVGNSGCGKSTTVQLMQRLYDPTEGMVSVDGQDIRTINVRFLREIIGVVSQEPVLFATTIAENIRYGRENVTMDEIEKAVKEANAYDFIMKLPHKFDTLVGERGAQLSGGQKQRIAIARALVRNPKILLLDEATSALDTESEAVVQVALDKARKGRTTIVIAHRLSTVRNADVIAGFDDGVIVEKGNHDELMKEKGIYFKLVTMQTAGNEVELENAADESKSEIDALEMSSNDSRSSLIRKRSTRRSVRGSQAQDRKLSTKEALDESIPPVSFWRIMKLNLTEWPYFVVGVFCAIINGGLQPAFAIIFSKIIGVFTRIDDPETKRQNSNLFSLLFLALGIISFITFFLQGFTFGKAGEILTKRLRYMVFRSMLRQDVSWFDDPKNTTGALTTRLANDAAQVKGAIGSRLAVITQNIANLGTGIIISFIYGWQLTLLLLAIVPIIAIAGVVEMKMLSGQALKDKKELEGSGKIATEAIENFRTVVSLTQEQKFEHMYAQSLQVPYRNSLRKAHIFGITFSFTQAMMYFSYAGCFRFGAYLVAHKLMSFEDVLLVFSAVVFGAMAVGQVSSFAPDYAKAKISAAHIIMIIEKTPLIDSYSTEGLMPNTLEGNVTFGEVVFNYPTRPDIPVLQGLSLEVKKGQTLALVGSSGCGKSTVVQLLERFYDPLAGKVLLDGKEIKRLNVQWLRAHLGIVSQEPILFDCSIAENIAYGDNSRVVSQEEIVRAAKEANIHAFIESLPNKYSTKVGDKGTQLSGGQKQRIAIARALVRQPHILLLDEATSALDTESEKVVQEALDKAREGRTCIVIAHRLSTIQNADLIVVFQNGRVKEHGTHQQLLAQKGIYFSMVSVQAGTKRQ

| Compound | Activity [1] | Activity [2] |
| --- | --- | --- |
| O=C1C[C@@H](c2ccc(O)cc2)Oc2cc(O)cc(O)c21 [NARINGENIN] | 240% |  |
| GRAPEFRUIT JUICE |  | 240% |
